Test results from patent US11590164B2, “Topical antimicrobial formulations containing monovalent copper ions and systems for generating monovalent copper ions” (priority 2016, dated 2023).

How the values were obtained:
[1] = test system: Escherichia coli strain MG1655; assay: Disc diffusion antibiotic sensitivity test; format: cell-based; settings: for Estimate of the sterile area beyond the disk: aerobic, 37° C., 24 h incubation, 6 mm disk
Method: 1. Introduction: • The antibacterial effect was measured by an agar disk diffusion method. Escherichia coli strain MG1655 was used as a model organism. Whatman's 6 mm disks were used. The incubation of Petri dishes (with disks) was done in aerobic conditions, at 37° C. After 24 h incubation, the radiuses of sterile zones on agar were measured.
2.1 Preparation of bacterial suspension • 100 μl of bacterial suspension (containing 10^4-10^5 bacterial cells per plate) was used for testing. Cells of E. coli MG1655 were grown overnight as a starter on LB (Luria broth) media at 37° C. with a shaker. After 12-18 hhours incubation, 100 μL suspension were added to 9.9 mL of fresh LB media. Bacterial cells designated for testing were grown in fresh LB at 37° C. with a shaker for 2-3 h to final OD (600 nm) 0.2-0.4. This cell suspension was diluted by a factor of 100 using 0.9% NaCl, and 100 μL of the diluted suspension was distributed on agar surface before adding a disk.
2.2 Preparation of Petri dishes • LB agar was prepared according to a standard procedure, autoclaved and stored afterwards up to 3 h at 55° C. The needed substances (like ascorbic acid) were added into agar before pouring into dishes. 15 ml agar was added to each 90 mm Petri dish. Dishes were dried for at least 1 h in a biosafety cabinet by sterile air flow.
2.3 Formulation application • To the preliminary dried dishes (a described in 2.2) a freshly prepared bacterial culture was added (as described in 2.1). Immediately after absorption of the suspension into the agar, a disk was placed at the center of the dish. In case where metallic copper was tested, it was placed first in the form of a small circular wire at the dish center and pressed into the agar, and covered by a disk afterwards. 10 μl of a Cu^2+ solution was placed on the disk.
2.4 Measurement of the sterile zone size • All dishes after 24 h incubation (as described in 2.1) were photographed and the images are analyzed. The absolute size of the sterile zones was estimated in comparison with the disk size (6 mm).
The results were presented as sterile area in mm^2 (FIG. 5 and Table 2) or as radiuses in mm (FIGS. 7-10) of the sterile zones on agar.

E. coli [2] = assay: Kinetics of bactericidal effect (time-kill curve), syringes technique; format: cell-based, Escherichia coli
Method: (§1) Syringes technique: Bacteria cells were incubated at room temperature under anaerobic conditions in LB Bruce growth substance syringes. To ensure anaerobic conditions, Argon gas (UHP) was bubbled through a sterile filter into a syringe filled with a growth substance. Cu^1+ was formed in situ, the process was started with de-aerating the aqueous solutions containing a mixture of CuSO4 as the source for Cu^2+ ions, metallic copper and Acetonitrile as a stabilizing ligand, prior to microorganisms insertion, according to the following reaction:
(§2) Reference bacteria were incubated under the same condition in a growth substance containing: Metallic copper (4×2×0.1 cm), Acetonitrile, CuSO4 or AgNO3.
(§3) Bacteria count was measured at time intervals using a series of dilutions, and colonies count on LB Agar was incubated at 37° C.
Because of the chemical similarity of copper and silver as well as their clinical use as antibacterial agents, their antibacterial effect over time was compared. The survival of test bacteria in each syringe was sampled in time intervals of 1, 20, 40 and 85 hours from inoculation. Time-kill curve was constructed by plotting the viable cell count of bacteria (Δ log 10 cfu/ml) over time (FIG. 1).

E. coli MG 1655 = assay: Petri dish technique, LB agar with ascorbic acid and CuSO4 covered by oil; format: cell-based, Escherichia coli; settings: for Vitality of E. coli MG 1655: 24 h
Method: (§4) As control groups, bacteria were incubated under the same conditions without ascorbic acid, or without CuSO4. In this series of experiments ascorbic acid acted as the reducing agent according to the following reaction: 2Cu^2++ascorbic acid→2Cu^++dehydro ascorbic acid (2) The viability of bacteria was detected by the presence or absence of colonies.
The experiment was repeated using a different reducing agent (ascorbic acid instead of metal copper with acetonitrile) and different technique of growing bacteria on Petri dishes with LB agar. The ascorbic acid embedded in the agar reduces copper as was shown in Equation 2.

Saccharomyces cerevisiae = assay: Viable cell count over time, syringes technique; format: cell-based
Staphylococcus aureus = assay: Growth kinetics in anaerobic conditions, syringe technique; format: cell-based
Method: as §1, §2, §3
When comparing with FIG. 2 it seems that the difference between the effect of Cu^1+ and Cu^2+ is more pronounced in gram (+) bacteria than in gram(−).

E. coli [3] = assay: Syringes technique, anaerobic incubation of E. coli with copper ions (vitality / MIC); format: cell-based, Escherichia coli
Method: as §1
One must notice that each Cu^2+ results in two Cu^1+ ions.
as §2, §3
The vitality of Escherichia coli, Staphylococcus aureus (bacteria) and Saccharomyces cerevisiae (yeast) was tested in anaerobic conditions using syringe technique and Petri dish technique.
The MIC of Cu^1+ and Cu^2+ was measured by using four syringes with decreasing concentration of the copper ions from 8 to 2 mM.
MIC of Cu^1+ found to be around 4 mM where the MIC of Cu^2+ was between 6 mM and 8 mM.

S. aureus = assay: Petri dish technique, LB agar with ascorbic acid; format: cell-based, Staphylococcus aureus; settings: 24 h
Method: as §4, with “Petri dish technique: Bacteria were incubated at 37° C. in Petri dish with LB Agar containing 20 mM ascorbic acid and 0.05-3.5 mM CuSO4 covered by oil, to prevent air oxygen penetration. As” for “As”
The MIC of Cu^1+ is measured by using Petri dishes with LB agar. The ascorbic acid embedded in the agar reduces copper as was shown in Equation 2.

[4] = 4 mM ion, 24 h incubation, 0.5% (v/v) acetonitrile

[Ag+] [Ag^1+, reference compound]
Estimate of the sterile area beyond the disk [1]: 27.1 mm^2 | viable cells (E. coli [2]; after 85 hours): no viable cells were found

O=C1O[C@H]([C@@H](O)CO)C(O)=C1O [Ascorbic acid, ascorbic acid, reference compound]
Vitality of E. coli MG 1655 (E. coli MG 1655; Ascorbic acid 20 mM, CuSO4 0 mM): ++ (a fully covered plate, estimated as 2×10^7 cfu/ml)

O=S(=O)([O-])[O-].[Cu+2] [CuSO4]
Vitality of E. coli MG 1655 (E. coli MG 1655; Ascorbic acid 0 mM, CuSO4 3.0 mM): ++ (a fully covered plate, estimated as 2×10^7 cfu/ml) | Vitality of E. coli MG 1655 (E. coli MG 1655; Ascorbic acid 0 mM, CuSO4 4.0 mM): − | Vitality of E. coli MG 1655 (E. coli MG 1655; Ascorbic acid 20 mM, CuSO4 0.01 mM): ++ (a fully covered plate, estimated as 2×10^7 cfu/ml) | Vitality of E. coli MG 1655 (E. coli MG 1655; Ascorbic acid 20 mM, CuSO4 0.05 mM): −

[Cu+] [Cu^1+]
susceptibility of the yeast compared with the bacteria studied (Saccharomyces cerevisiae): more susceptible | bacteriostatic effect (Staphylococcus aureus): very little bacteriostatic effect | incubation time to depletion of bacterial count (Staphylococcus aureus): ≤ 1 h | presence or absence of E. coli colonies (E. coli [3]; 2 mM ion, 24 h incubation, 0.5% (v/v) acetonitrile): ++ (a fully covered plate, estimated as 2×10^7 cfu/ml) | number of colonies on the plate (E. coli [3]; [4]): 107 colonies | presence or absence of E. coli colonies (E. coli [3]; [4]): ++ (a fully covered plate, estimated as 2×10^7 cfu/ml) | presence or absence of E. coli colonies (E. coli [3]; 6 mM ion, 24 h incubation, 0.5% (v/v) acetonitrile): − | presence or absence of E. coli colonies (E. coli [3]; 6 mM ion, 24 h incubation, 0.5% (v/v) acetonitrile, listed as Cu^+2): + (partially covered plate but still uncountable, estimated as 1×10^4 cfu/ml) | presence or absence of E. coli colonies (E. coli [3]; 8 mM ion, 24 h incubation, 0.5% (v/v) acetonitrile): − | MIC (E. coli [3]; 24 h incubation, 0.5% (v/v) acetonitrile, syringes): around 4 mM | Estimate of the sterile area beyond the disk [1]: 359.3 mm^2 | Estimate of the sterile area beyond the disk ([1]; listed as Cu^2+): 25.9 mm^2 | Estimate of the sterile area beyond the disk ([1]; listed as Cu^+2): 25.9 mm^2 | improvement in the biocidal effect compared with Ag^1+ and Cu^2+ ([1]; disk diffusion method): more than 10 times | S. aureus vitality (S. aureus; 0.05 mM with ascorbic acid 20 mM): ++ (a fully covered plate, estimated as 2×10^7 cfu/ml) | S. aureus vitality, number of colonies (S. aureus; 0.1 mM with ascorbic acid 20 mM): 45 | S. aureus vitality (S. aureus; 0.3 mM with ascorbic acid 20 mM): − | antibacterial potency compared with 8 mM and 16 mM Ag^+ (E. coli [2]; 8 mM, 1 h incubation): more potent antibacterial agent | viable bacteria cells (E. coli [2]; 20 hours after inoculation): no viable bacteria cell was found at all | reduction of the initial bacteria inoculums (E. coli [2]; after 1 h of incubation, anaerobic): 7 log cfu/ml | live bacteria remaining in the syringe (E. coli [2]; after 85 hours): 1 log cfu/ml | bactericidal effect of reduced copper ions relative to Cu^2+ (E. coli MG 1655; 24 h after incubation): eight times higher

CC#N [acetonitrile]
minimal effective concentration as stabilizing ligand (E. coli [3]; preliminary tests, equals 0.5% V/V): 0.1 M

copper(II) gluconate [copper (II) gluconate]
minimal recommended concentration of copper (II) gluconate ([1]; in emulsifying base ointment with ascorbyl palmitate and 2% copper powder): 1.25 % w/w
